Test results taken from patent US9302999B2, “Substituted triazoles as herbicides” (E. I. DU PONT DE NEMOURS AND COMPANY, priority 2012, dated 2016).

Columns and labels:
Assay type in all cases: in vivo
[1] = tested on: bluegrass (annual bluegrass, Poa annua); experiment: Test D pre-/postemergence: bluegrass
Summary of the method: (§1)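 Visual ratings from 0 (no effect) to 100 (complete control) were made 14–21 days after treatment, relative to controls. Applications were preemergence to seeds in silt loam, or postemergence to 2–18 cm (1–4 leaf) plants in peat-based medium. Compounds were formulated in a surfactant-containing non-phytotoxic solvent.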

[2] = tested on: chickweed (common chickweed, Stellaria media); experiment: Test D pre-/postemergence: chickweed
Summary of the method: as §1

[3] = tested on: ducksalad (Heteranthera limosa); experiment: Test C flooded paddy test: ducksalad; conditions: scale 0 to 100 (0 no effect, 100 complete control)
Summary of the method: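 2-leaf stage plants; pots flooded 3 cm above soil; compound applied into paddy water, depth maintained. Greenhouse 13–15 d. Visual rating vs controls, 0–100 (0 = no effect, 100 = complete control); dash = no result.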

[4] = tested on: field violet (Viola arvensis); experiment: Test D pre-/postemergence: field violet
Description: Seeds of plant species selected from bluegrass (annual bluegrass, Poa annua), blackgrass (Alopecurus myosuroides), canarygrass (Phalaris minor), chickweed (common chickweed, Stellaria media), galium (catchweed bedstraw, Galium aparine), bromegrass, downy (downy bromegrass, Bromus tectorum), field poppy (Papaver rhoeas), field violet (Viola arvensis), foxtail, green (green foxtail, Setaria viridis), deadnettle (henbit deadnettle, Lamium amplexicaule), ryegrass, Italian (Italian ryegrass, Lolium multiflorum), kochia (Kochia scoparia), lambsquarters (Chenopodium album), oilseed rape (Brassica napus), pigweed (Amaranthus retroflexus), Russian thistle (Salsola iberica), chamomile (scentless chamomile, Matricaria inodora), speedwell (bird's-eye speedwell, Veronica persica), barley, spring (spring barley, Hordeum vulgare), wheat, spring (spring wheat, Triticum aestivum), buckwheat, wild (wild buckwheat, Polygonum convolvulus), mustard, wild (wild mustard, Sinapis arvensis), oat, wild (wild oat, Avena fatua), radish, wild (wild radish, Raphanus raphanistrum), windgrass (Apera spica-venti), barley, winter (winter barley, Hordeum vulgare), and wheat, winter (winter wheat, Triticum aestivum) were planted into a silt loam soil and treated preemergence with test chemicals formulated in a non-phytotoxic solvent mixture which included a surfactant. At the same time, these same crop and weed species were planted in pots containing the planting medium comprising spaghnum peat moss, vermiculite, wetting agent and starter nutrients and treated with postemergence applications of the test chemicals formulated in the same manner. Plants ranged in height from 2 to 18 cm (1- to 4-leaf stage).
(§2) Treated plants and controls were maintained in a controlled growth environment for 14 to 21 days after which time all species were compared to controls and visually evaluated. Plant response ratings, summarized in Table D, are based on a scale of 0 to 100 where 0 is no effect and 100 is complete control. A dash (-) response means no test result.

[5] = tested on: barley, spring (spring barley, Hordeum vulgare); experiment: Test D pre-/postemergence: barley, spring
Summary of the method: as §1

[6] = tested on: poinsettia, wild (wild poinsettia, Euphorbia heterophylla); experiment: Test F pre-/postemergence: poinsettia, wild
Description: (§3) Seeds of plant species selected from corn (Zea mays), soybean (Glycine max), velvetleaf (Abutilon theophrasti), lambsquarters (Chenopodium album), poinsettia, wild (wild poinsettia, Euphorbia heterophylla), pigweed, palmer (palmer pigweed, Amaranthus palmeri), waterhemp (common waterhemp, Amaranthus rudis), surinam grass (Brachiaria decumbens), crabgrass, Brazil (Brazilian crabgrass, Digitaria horizontalis), panicum, fall (fall panicum Panicum dichotomiflorum), crabgrass, large (large crabgrass, Digitaria sanguinalis), foxtail, giant (giant foxtail, Setaria faberii), foxtail, green (green foxtail Setaria viridis), goosegrass (Eleusine indica), ragweed (common ragweed, Ambrosia elatior), barnyardgrass (Echinochloa crus-galli), sandbur (southern sandbur, Cenchrus echinatus), arrowleaf sida (Sida rhombifolia), ryegrass, Italian (Italian ryegrass, Lolium multiflorum), dayflower, VA (Virginia (VA) dayflower, Commelina virginica), field bindweed (Convolvulus arvensis), cocklebur (common cocklebur, Xanthium strumarium), morningglory (Ipomoea coccinea), nightshade (eastern black nightshade, Solanum ptycanthum), kochia (Kochia scoparia), nutsedge, yellow (yellow nutsedge, Cyperus esculentus), johnsongrass (Sorghum halepense), smartweed (ladysthumb smartweed, Polygonum persicaria), and beggarticks (hairy beggarticks, Bidens pilosa), were planted into a silt loam soil and treated preemergence with test chemicals formulated in a non-phytotoxic solvent mixture which included a surfactant. At the same time, plants selected from these crop and weed species and also pigweed (Amaranthus retroflexus), waterhemp_RES1 (ALS/Triazine resistant common waterhemp, Amaranthus rudis) and waterhemp_RES2 (ALS/HPPD resistant common waterhemp, Amaranthus rudis) were planted in pots containing a planting medium comprising spaghnum peat moss, vermiculite, wetting agent and starter nutrients treated with postemergence applications of some of the test chemicals formulated in the same manner. Plants ranged in height from 2 to 18 cm for postemergence treatments (1- to 4-leaf stage).
as §2, with “greenhouse” for “controlled growth environment”, “days,” for “days”, “E,” for “D,”

[7] = tested on: nightshade (eastern black nightshade, Solanum ptycanthum); experiment: Test F pre-/postemergence: nightshade; conditions: Preemergence
Description: as §3
as §2, with “greenhouse” for “controlled growth environment”, “days,” for “days”, “E,” for “D,”

[8] = Postemergence, 31 g ai/ha, scale 0 to 100 (0 no effect, 100 complete control)
[9] = Postemergence, 62 g ai/ha, scale 0 to 100 (0 no effect, 100 complete control)
[10] = Postemergence, 125 g ai/ha, scale 0 to 100, 0 no effect, 100 complete control
[11] = Postemergence, 250 g ai/ha, scale 0 to 100 (0 no effect, 100 complete control)
[12] = Postemergence, 16 g ai/ha, scale 0 to 100
[13] = Flood (flooded paddy test), 125 g ai/ha, visual rating after 13 to 15 days
[14] = Flood (flooded paddy test), 250 g ai/ha, visual rating after 13 to 15 days
[15] = Preemergence, 62 g ai/ha, scale 0 to 100
[16] = Preemergence, 125 g ai/ha, scale 0 to 100
[17] = Preemergence, 250 g ai/ha, scale 0 to 100
[18] = Preemergence, 31 g ai/ha, scale 0 to 100, 0 no effect, 100 complete control
[19] = Preemergence, 16 g ai/ha, scale 0 to 100, 0 no effect, 100 complete control
[20] = Postemergence, 31 g ai/ha, scale 0 to 100
[21] = Postemergence, 125 g ai/ha, scale 0 to 100
[22] = 31 g ai/ha, scale 0 to 100, 0 no effect, 100 complete control

Cc1nn(-c2ccc(C(F)(F)F)cn2)nc1Oc1ccnc(C(F)(F)F)c1 [Compound 23]
Plant response rating: Bluegrass [1, 8]: 20
Plant response rating: Bluegrass [1, 9]: 25
Plant response rating: Bluegrass [1, 10]: 30
Plant response rating: Bluegrass [1, 11]: 40
Plant response rating, Bluegrass [1, 12]: 20
Plant response rating: Chickweed [2, 8]: 10
Plant response rating: Chickweed [2, 9]: 15
Plant response rating: Chickweed [2, 10]: 30
Plant response rating: Chickweed [2, 11]: 90
Plant response rating, Chickweed [2, 12]: 5
Plant response rating, Ducksalad ([3]; Flood (flooded paddy test), 62 g ai/ha, visual rating after 13 to 15 days): 60
Plant response rating, Ducksalad [3, 13]: 60
Plant response rating, Ducksalad [3, 14]: 85
Plant response rating, Ducksalad ([3]; Flood, 31 g ai/ha): 50
Plant response rating: Field Violet [4, 8]: 40
Plant response rating: Field Violet [4, 9]: 50
Plant response rating: Field Violet [4, 10]: 70
Plant response rating: Field Violet [4, 11]: 80
Plant response rating, Field Violet [4, 12]: 20
Plant response rating: Barley, Spring [5, 8]: 0
Plant response rating: Barley, Spring [5, 9]: 10
Plant response rating: Barley, Spring [5, 10]: 10
Plant response rating: Barley, Spring [5, 11]: 15
Plant response rating, Barley, Spring [5, 12]: 0

Cc1nn(-c2ccc(C(F)(F)F)cn2)nc1Cc1cccc(C(F)(F)F)c1 [Compound 106]
Plant response rating: Bluegrass [1, 8]: 10
Plant response rating: Bluegrass [1, 9]: 10
Plant response rating: Bluegrass [1, 10]: 15
Plant response rating: Bluegrass [1, 11]: 30
Plant response rating, Bluegrass [1, 12]: 10
Plant response rating, Bluegrass [1, 15]: 0
Plant response rating, Bluegrass [1, 16]: 0
Plant response rating, Bluegrass [1, 17]: 0
Plant response rating: Chickweed [2, 8]: 90
Plant response rating: Chickweed [2, 9]: 90
Plant response rating: Chickweed [2, 10]: 90
Plant response rating: Chickweed [2, 11]: 90
Plant response rating, Chickweed [2, 12]: 20
Plant response rating, Chickweed [2, 18]: 100
Plant response rating, Chickweed [2, 15]: 100
Plant response rating, Chickweed [2, 16]: 100
Plant response rating, Chickweed [2, 17]: 100
Plant response rating, Ducksalad [3, 13]: 70
Plant response rating, Ducksalad [3, 14]: 70
Plant response rating, Ducksalad ([3]; Flood, 31 g ai/ha): 0
Plant response rating, Ducksalad ([3]; Flood, 62 g ai/ha): 60
Plant response rating: Field Violet [4, 8]: 70
Plant response rating: Field Violet [4, 9]: 70
Plant response rating: Field Violet [4, 10]: 85
Plant response rating: Field Violet [4, 11]: 100
Plant response rating, Field Violet [4, 12]: 70
Plant response rating: Barley, Spring [5, 8]: 10
Plant response rating: Barley, Spring [5, 9]: 15
Plant response rating: Barley, Spring [5, 10]: 20
Plant response rating: Barley, Spring [5, 11]: 30
Plant response rating, Barley, Spring [5, 12]: 5
Plant response rating, Barley, Spring [5, 18]: 0
Plant response rating, Barley, Spring [5, 15]: 0
Plant response rating, Barley, Spring [5, 16]: 0
Plant response rating, Barley, Spring [5, 17]: 0

Cc1nn(-c2ccc(C(F)(F)F)cc2)nc1Oc1ccnc(C(F)(F)F)c1 [Compound 120]
Plant response rating: Bluegrass [1, 8]: 10
Plant response rating: Bluegrass [1, 9]: 40
Plant response rating: Bluegrass [1, 10]: 70
Plant response rating: Bluegrass [1, 11]: 95
Plant response rating, Bluegrass [1, 12]: 10
Plant response rating, Bluegrass [1, 19]: 0
Plant response rating, Bluegrass [1, 18]: 100
Plant response rating, Bluegrass [1, 15]: 100
Plant response rating, Bluegrass [1, 16]: 100
Plant response rating, Bluegrass [1, 17]: 100
Plant response rating: Chickweed [2, 8]: 85
Plant response rating: Chickweed [2, 9]: 98
Plant response rating: Chickweed [2, 10]: 100
Plant response rating: Chickweed [2, 11]: 100
Plant response rating, Chickweed [2, 12]: 75
Plant response rating, Chickweed [2, 19]: 20
Plant response rating, Chickweed [2, 18]: 90
Plant response rating, Chickweed [2, 15]: 90
Plant response rating, Chickweed [2, 16]: 100
Plant response rating, Chickweed [2, 17]: 100
Plant response rating, Ducksalad [3, 13]: 80
Plant response rating, Ducksalad [3, 14]: 85
Plant response rating, Ducksalad ([3]; Flood, 62 g ai/ha): 70
Plant response rating: Field Violet [4, 8]: 70
Plant response rating: Field Violet [4, 9]: 100
Plant response rating: Field Violet [4, 10]: 100
Plant response rating: Field Violet [4, 11]: 100
Plant response rating, Field Violet [4, 12]: 70
Plant response rating, Field Violet [4, 19]: 75
Plant response rating, Field Violet [4, 18]: 90
Plant response rating, Field Violet [4, 15]: 95
Plant response rating, Field Violet [4, 16]: 100
Plant response rating, Field Violet [4, 17]: 100
Plant response rating: Barley, Spring [5, 8]: 10
Plant response rating: Barley, Spring [5, 9]: 15
Plant response rating: Barley, Spring [5, 10]: 15
Plant response rating: Barley, Spring [5, 11]: 30
Plant response rating, Barley, Spring [5, 12]: 5
Plant response rating, Barley, Spring [5, 19]: 0
Plant response rating, Barley, Spring [5, 18]: 0
Plant response rating, Barley, Spring [5, 15]: 5
Plant response rating, Barley, Spring [5, 16]: 10
Plant response rating, Barley, Spring [5, 17]: 20

Cc1nn(-c2ccnc(Cl)c2)nc1Cc1ccnc(C(F)(F)F)c1 [Compound 141]
Plant response rating, Poinsettia, Wild ([6]; Postemergence, 8 g ai/ha, scale 0 to 100): 60
Plant response rating, Poinsettia, Wild [6, 12]: 80
Plant response rating, Poinsettia, Wild [6, 20]: 85
Plant response rating, Poinsettia, Wild ([6]; Postemergence, 62 g ai/ha, scale 0 to 100): 95
Plant response rating, Poinsettia, Wild [6, 21]: 98

CCc1nn(-c2ccc(F)c(F)c2)nc1Oc1ccnc(C(F)(F)F)c1 [Compound 171]
Plant response rating, Poinsettia, Wild [6, 19]: 0
Plant response rating, Poinsettia, Wild [6, 18]: 0
Plant response rating, Poinsettia, Wild [6, 16]: 10
Plant response rating, Poinsettia, Wild [6, 17]: 10
Plant response rating, Nightshade ([7]; 16 g ai/ha, scale 0 to 100, 0 no effect, 100 complete control): 0
Plant response rating, Nightshade [7, 22]: 0
Plant response rating, Nightshade ([7]; 125 g ai/ha, scale 0 to 100): 5
Plant response rating, Nightshade ([7]; 250 g ai/ha, scale 0 to 100): 5

CCCc1nn(-c2ccc(F)c(F)c2)nc1Oc1ccnc(C(F)(F)F)c1 [Compound 172]
Plant response rating, Poinsettia, Wild ([6]; Postemergence, 250 g ai/ha, scale 0 to 100): 100
Plant response rating, Poinsettia, Wild [6, 20]: 80
Plant response rating, Poinsettia, Wild [6, 21]: 100
Plant response rating, Poinsettia, Wild [6, 18]: 20
Plant response rating, Poinsettia, Wild [6, 16]: 50
Plant response rating, Poinsettia, Wild [6, 17]: 98
Plant response rating, Nightshade [7, 22]: 5
Plant response rating, Nightshade ([7]; 125 g ai/ha, scale 0 to 100): 100
Plant response rating, Nightshade ([7]; 250 g ai/ha, scale 0 to 100): 100
